Entries after “also recorded” stand apart in the source; their conditions may differ. Read-outs that look alike come from different tables or passages of the source.
Legend:
TbrAK [1] = molecular target: T1, TbrAK (Trypanosoma brucei rhodesiense, UniProt Q584S0); test: Thermal stability assay (thermal unfolding by CD spectroscopy); format: binding; conditions: for Tm ± SD: TbrAK 13 µM, apo TbrAK 43.1±0.4, average of three experiments; for increase of TbrAK melting point when compound 1 was added: 50 µM
Protocol: Thermal unfolding of TbrAK was studied by CD spectroscopy as outlined elsewhere. […] TbrAK in a buffer containing 20 mM Hepes and 150 mM NaCl (pH 7.0) was kept constant at a final concentration of 0.5 mg/ml (13 µM). […] For evaluation of the CD spectra, the buffer spectrum was subtracted from the protein CD spectrum. All thermal unfolding curves were fitted to a two-state model that had been published recently. The mean of three independent experiments is reported.

[2] = molecular target: TbrAK (adenosine kinase of T. b. rhodesiense) (Trypanosoma brucei rhodesiense, UniProt Q584S0); test: TbrAK activity assay (HPLC, ADP/ATP ratio); format: biochemical; conditions: n.e. = no effect; for potency EC50 (TbrAK activation) / EC50: compound range 1–2000 µM, average of three experiments, neither activator nor inhibitor; for efficacy increase (TbrAK activation): efficacy of TbrAK in absence of compound taken as reference; for EC50: read-out: potency EC50 (TbrAK activation)
Protocol: The activation potential of a series of compound 1 derivatives (compounds 2–7) was measured using a recently developed HPLC method. The resulting ADP/ATP ratios were calculated and used as a measure of activity. For comparative reasons the activity recorded in absence of compound was set to 100%. The mean of three independent measurements is reported.

[3] = parameters: method as in PMID 19707572, PMID 17949068; conditions: cited from earlier work
[4] = system: Trypanosoma brucei rhodesiense; parameters: method as in PMID 19707572, PMID 17949068; conditions: read-out: IC50 towards Trypanosoma brucei rhodesiense; cited from earlier work
TbrAK [5] = molecular target: T1, TbrAK; conditions: ITC; cited from earlier work
TbrAK [6] = molecular target: T1, TbrAK; test: Isothermal titration calorimetry (ITC); format: binding
Protocol: Binding affinity constants for adenosine and ATP were determined using isothermal titration calorimetry (ITC). To this end, TbrAK was dialyzed into a buffer consisting of 20 mM Tris, 150 mM NaCl, and 5% glycerol (pH 7.5) and used at concentrations around 90 µM. The ligands were dissolved directly into the dialysis buffer to give a final concentration of around 2 mM. All solutions were filtered and thoroughly degassed before use. A typical titration experiment consisted of a first control injection of 1 µl followed by 50 to 60 injections, each of 5 µl (20 s duration), using a 4 min interval. Raw data were collected, corrected for ligand heats of dilution, integrated and fitted to the appropriate binding model using the Microcal Origin software supplied with the instrument. The measurements were performed in duplicate.

[7] = AP5A, adenosine, ATP at 500 µM, compound 1 at 50 µM

Chain of TbrAK (adenosine kinase of T. b. rhodesiense) (Q584S0 entry or part of it): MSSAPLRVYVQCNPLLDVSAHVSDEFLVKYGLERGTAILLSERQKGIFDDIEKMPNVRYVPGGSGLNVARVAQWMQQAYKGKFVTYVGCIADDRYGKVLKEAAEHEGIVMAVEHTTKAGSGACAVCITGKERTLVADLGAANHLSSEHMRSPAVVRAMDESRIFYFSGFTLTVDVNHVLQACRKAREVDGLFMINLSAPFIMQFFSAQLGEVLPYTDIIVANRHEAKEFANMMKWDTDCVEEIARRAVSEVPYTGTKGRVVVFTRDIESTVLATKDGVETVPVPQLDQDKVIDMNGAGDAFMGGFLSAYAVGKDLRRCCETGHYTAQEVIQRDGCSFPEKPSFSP
T1 sequence (Q584S0 entry or part of it): as above

Row | SMILES | Tm ± SD (TbrAK [1]; [7]) [°C] | efficacy increase (TbrAK activation) [2] | EC50 [2] [µM] | further results
1 | Nc1ncnc2c1ncn2[C@@H]1O[C@H](COP(=O)(O)OP(=O)(O)OP(=O)(O)O)[C@@H](O)[C@H]1O [ATP, adenosine triphosphate] | 42.8±0.1 |  |  | 
2 | O=[N+]([O-])c1ccc(Oc2ccc(-c3cc(N4CCOCC4)[nH]n3)cc2)cc1 [compound 7, 4-{5-[4-(4-nitrophenoxy)phenyl]-2H-pyrazol-3-yl}morpholine] |  | loses all activation capacity; also recorded: n.e. ^c |  | potency EC50 (TbrAK activation) [2]: n.e.
3 | c1ccc(Oc2ccc(-c3cc(N4CCOCC4)on3)cc2)cc1 [compound 6, 4-[3-(4-phenoxyphenyl)isoxazol-5-yl]morpholine] |  | loses all activation capacity; also recorded: n.e. ^c |  | potency EC50 (TbrAK activation) [2]: n.e. ^c
4 | c1ccc(Oc2ccc(-c3cc(N4CCOCC4)[nH]n3)cc2)cc1 [compound 1, 4-[5-(4-phenoxyphenyl)-2H-pyrazol-3-yl]morpholine] | 47.9±0.1 | 3.5 fold |  | cytotoxicity [3]: low cytotoxicity; increase of TbrAK melting point when compound 1 was added (TbrAK [1]; in presence of adenosine): 0.4 °C; increase of TbrAK melting point when compound 1 was added (TbrAK [1]; in presence of both adenosine and ATP): 0.7 °C; IC50 [4]: 1 µM; number of binding sites on TbrAK (TbrAK [5]): two binding sites
5 | Nc1ncnc2c1ncn2[C@@H]1O[C@H](CO)[C@@H](O)[C@H]1O [adenosine] | 50.7±0.2 |  |  | Kd (TbrAK [6]): 1.3 ± 0.3 µM; n (molar ratio, single site) (TbrAK [6]; in presence of compound 1 (150 µM)): 0.9±0.1; ΔHbind, single binding site (TbrAK [6]; in presence of compound 1 (150 µM), single-site binding model): -15.5 ± 0.2 kcal/mol; Kd (TbrAK [6]; read-out: KD, low affinity binding site, two-sites non-interacting binding model, mean of two experiments): 27.6 ± 1.1 µM; n1 (molar ratio, high affinity site) (TbrAK [6]; two-sites model): 0.9±0.1; n2 (molar ratio, low affinity site) (TbrAK [6]; two-sites model): 0.8±0.1
6 | Nc1ncnc2c1ncn2[C@@H]1O[C@H](COP(=O)(O)OP(=O)(O)OP(=O)(O)OP(=O)(O)OP(=O)(O)OC[C@H]2O[C@@H](n3cnc4c(N)ncnc43)[C@H](O)[C@@H]2O)[C@@H](O)[C@H]1O [AP5A, P^1,P^5-di(adenosine-5′)-pentaphosphate] | 50.5±0.2 |  |  | Δ Tm (TbrAK [1]; shift versus apo TbrAK (43.1°C), AP5A, adenosine, ATP at 500 µM, compound 1 at 50 µM): 7.4 °C
7 | c1ccc(Oc2ccc(-c3cc(C4CCOCC4)[nH]n3)cc2)cc1 [compound 2, 3-(4-phenoxyphenyl)-5-(tetrahydropyran-4-yl)-1H-pyrazole] |  | 2.0 fold | 25.4 | 
8 | c1ccc(Oc2ccc(-c3cc(CN4CCOCC4)[nH]n3)cc2)cc1 [compound 5, 4-[5-(4-phenoxyphenyl)-2H-pyrazol-3-ylmethyl]morpholine] |  | 1.5 fold | 195 | 
9 | Clc1ccc(-c2cc(N3CCOCC3)[nH]n2)cc1 [compound 4, 4-[5-(4-chlorophenyl)-2H-pyrazol-3-yl]morpholine] |  | 2.0 fold | 135 | 
10 | CCc1ccc(-c2cc(C3CCOCC3)[nH]n2)cc1 [compound 3, 3-(4-ethylphenyl)-5-(tetrahydropyran-4-yl)-1H-pyrazole] |  | 2.5 fold | 168 | 

From PMC3101181, “Crystal Structures of T. b. rhodesiense Adenosine Kinase Complexed with Inhibitor and Activator: Implications for Catalysis and Hyperactivation” (PLoS Neglected Tropical Diseases, 2011)
